Laboratory results: ChEMBL document CHEMBL1131982, “N-[2-(1-cyclohexenyl)ethyl]-N'-[2-(5-bromopyridyl)]-thiourea and N'-[2-(1-cyclohexenyl)ethyl]-N'-[2-(5-chloropyridyl)]-thiourea as potent inhibitors of multidrug-resistant human immunodeficiency virus-1” (Bioorg Med Chem Lett, 1999)

Key:
[1] = molecular target: Human immunodeficiency virus type 1 reverse transcriptase (Human immunodeficiency virus 1, UniProt Q72547); assay: Inhibitory activity against recombinant HIV-1 reverse transcriptase (rRT)
[2] = Anti-HIV activity by its ability to inhibit the replication of HIV-1 strain A17 (Y181C) in peripheral blood mononuclear cells (PBMC); format: functional; conditions: Homo sapiens
[3] = Anti-HIV activity by its ability to inhibit the replication of HIV-1 strain A17 variant (Y181C,K103N) in peripheral blood mononuclear cells (PBMC); format: functional, Homo sapiens
[4] = Anti-HIV activity by its ability to inhibit the replication of HIV-1 strain HTLV IIIB in peripheral blood mononuclear cells (PBMC); format: functional; conditions: Homo sapiens
[5] = Anti-HIV activity by its ability to inhibit the replication of HIV-1 strain RT-MDR(V106A) in peripheral blood mononuclear cells (PBMC); format: functional; conditions: Homo sapiens
[6] = Compound was evaluated for the cytotoxic activity by using Microculture Tetrazolium assay (MTA); format: functional

Row | Compound | IC50 [1] [µM] | IC50 [2] [µM] | IC50 [3] [µM] | IC50 [4] [µM] | IC50 [5] [µM] | CC50 [6] [µM]
1 | CC1(C)C2CC(C/N=C(\S)Nc3ccc(Br)cn3)CC1C2 (stereo not given) | > 100 |  |  |  |  | 
2 | S=C(NCCC1=CCCCC1)Nc1ccc(Cl)cn1 | 0.5 | 0.068 | 30 | 0.003 | 0.001 | > 100
3 | FC(F)(F)c1ccc(/N=C(\S)NCCC2=CCCCC2)nc1 | 4 | 0.3 | > 100 | 0.079 | 0.038 | > 100
4 | S=C(NCC12CC3CC(CC(C3)C1)C2)Nc1ccc(Br)cn1 | > 100 |  |  |  |  | 
5 | S=C(NCCC1=CCCCC1)Nc1ccc(Br)cn1 | 0.4 |  | 18.7 | 0.003 | 0.001 | > 100
6 | CC(C)Nc1cccnc1N1CCN(C(=O)c2cc3cc(NS(C)(=O)=O)ccc3[nH]2)CC1 [DELAVIRDINE] |  | 50 | > 100 | 0.009 | 0.4 | 3.6
7 | CCOCn1c(Cc2ccccc2)c(C(C)C)c(=O)[nH]c1=O [EMIVIRINE] |  |  |  |  | 0.3 | > 100
8 | Cc1ccnc2c1NC(=O)c1cccnc1N2C1CC1 [NEVIRAPINE] |  | > 100 | > 100 | 0.034 | 5 | 10.5
9 | S=C(NCCc1ccccn1)Nc1ccc(Br)cn1 [TROVIRDINE] |  | 0.5 | > 100 | 0.007 | 0.02 | > 100
10 | Cc1cn([C@H]2C[C@H](N=[N+]=[N-])[C@@H](CO)O2)c(=O)[nH]c1=O [ZIDOVUDINE] |  | 0.006 | 0.004 |  | 0.2 | > 100
